Assay results taken from ChEMBL document CHEMBL1201862, “PubChem BioAssay data set” (2004).
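Protocol summary: plate cells (96-well), add compound at 5 concentrations, incubate 48 h, interpolate endpoints linearly. GI50 marks 50% less growth.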 Activity calls are given as the source filed them. Cut-off read from the data, not from the text of the source: active = GI50 up to about 1.1 µM and inactive = higher.

What was measured:
Test in all cases: NCI tumour cell line growth inhibition, 48 h
786-0 = test system: 786-0
A549 = test system: A549
HCC 2998 = test system: HCC 2998
HCT-15 = test system: HCT-15
Hs-578T = test system: Hs-578T
IGROV-1 = test system: IGROV-1
LOX IMVI = test system: LOX IMVI
MOLT-4 = test system: MOLT-4
Malme-3M = test system: Malme-3M
NCI-H23 = test system: NCI-H23
NCI/ADR-RES = test system: NCI/ADR-RES
PC-3 = test system: PC-3
RPMI-8226 = test system: RPMI-8226
SF-268 = test system: SF-268
SK-OV-3 = test system: SK-OV-3
SN12C = test system: SN12C
SW-620 = test system: SW-620
U-251 = test system: U-251
UACC-62 = test system: UACC-62
UO-31 = test system: UO-31

| SMILES | GI50 (786-0) | GI50 (A549) | GI50 (HCC 2998) | GI50 (HCT-15) [µM] | GI50 (Hs-578T) | GI50 (IGROV-1) | GI50 (LOX IMVI) | GI50 (MOLT-4) | GI50 (Malme-3M) | GI50 (NCI-H23) | GI50 (NCI/ADR-RES) | GI50 (PC-3) | GI50 (RPMI-8226) | GI50 (SF-268) | GI50 (SK-OV-3) | GI50 (SN12C) | GI50 (SW-620) | GI50 (U-251) | GI50 (UACC-62) | GI50 (UO-31) |
| --- | --- | --- | --- | --- | --- | --- | --- | --- | --- | --- | --- | --- | --- | --- | --- | --- | --- | --- | --- | --- |
| COc1ccc(-n2c(N)c(C#N)c(C#N)c2-c2cccc([N+](=O)[O-])c2)cc1 | 33.9 µM (inactive) | 1.53 µM (inactive) | > 100 µM (inactive) | > 100 | 15.3 µM (inactive) | 23.8 µM (inactive) | 48.3 µM (inactive) | 2.46 µM (inactive) | > 100 µM (inactive) | > 100 µM (inactive) | > 100 µM (inactive) | 33.5 µM (inactive) | 5.37 µM (inactive) | 51.9 µM (inactive) | 43.7 µM (inactive) | > 100 µM (inactive) | > 100 µM (inactive) | 38.8 µM (inactive) | 17.5 µM (inactive) | 15 µM (inactive) |
| O=c1c(Br)c(-c2ccccc2)[s+]([O-])c2ccccc12 (stereo unspecified) | 2.7 µM (inactive) | 24.2 µM (inactive) | 14.6 µM (inactive) | 3.32 | 25.1 µM (inactive) | 10.1 µM (inactive) | 11.8 µM (inactive) | 1.22 µM (inactive) | 10.4 µM (inactive) | 16 µM (inactive) | 16.7 µM (inactive) | 7.78 µM (inactive) | 1.61 µM (inactive) | 16.4 µM (inactive) | 17.7 µM (inactive) | 15.6 µM (inactive) | 16.7 µM (inactive) | 8.07 µM (inactive) | 13.7 µM (inactive) | 12 µM (inactive) |
| Cn1c(=O)c2c(nc(N)n2C2OC(CO)C(O)C2O)n(C)c1=O (stereo unspecified) | > 100 µM (inactive) | > 100 µM (inactive) | > 100 µM (inactive) | > 100 | > 100 µM (inactive) | > 100 µM (inactive) | > 100 µM (inactive) | > 100 µM (inactive) | > 100 µM (inactive) | > 100 µM (inactive) | > 100 µM (inactive) | > 100 µM (inactive) | > 100 µM (inactive) | > 100 µM (inactive) | > 100 µM (inactive) | > 100 µM (inactive) | > 100 µM (inactive) | > 100 µM (inactive) | > 100 µM (inactive) | > 100 µM (inactive) |
| Cc1sc2nc3n(c(=O)c2c1C)N=C(c1ccccc1)CS3 | 47.5 µM (inactive) | > 100 µM (inactive) | > 100 µM (inactive) | > 100 | 37.5 µM (inactive) | > 100 µM (inactive) | > 100 µM (inactive) | > 100 µM (inactive) | > 100 µM (inactive) | > 100 µM (inactive) | > 100 µM (inactive) | > 100 µM (inactive) | > 100 µM (inactive) | > 100 µM (inactive) | > 100 µM (inactive) | > 100 µM (inactive) | > 100 µM (inactive) | > 100 µM (inactive) | > 100 µM (inactive) | > 100 µM (inactive) |
| O=C(Cc1nc2ncccc2[nH]c1=O)c1c[nH]c2ccccc12 | 18.2 µM (inactive) | 20 µM (inactive) | 19.8 µM (inactive) | 31.6 | 18.6 µM (inactive) | 17.3 µM (inactive) | 20.7 µM (inactive) | 26.4 µM (inactive) | 17.6 µM (inactive) | 21.6 µM (inactive) | 29.4 µM (inactive) | 16 µM (inactive) | 16.7 µM (inactive) | 14.9 µM (inactive) | 16.3 µM (inactive) | 18.2 µM (inactive) | 17.1 µM (inactive) | 17.7 µM (inactive) | 16.8 µM (inactive) | 17.7 µM (inactive) |
| CC(C)=CC[C@]12CCN(C)[C@H]1N(S(=O)(=O)c1ccccc1)c1ccccc12 | 42.3 µM (inactive) |  | > 40.1 µM (inactive) | > 47.2 | > 45.4 µM (inactive) | > 56.9 µM (inactive) | > 37.1 µM (inactive) | > 43.4 µM (inactive) | > 49.2 µM (inactive) | > 19.9 µM (inactive) | > 82.8 µM (inactive) | > 54 µM (inactive) | 29.9 µM (inactive) | > 44.6 µM (inactive) | 6.25 µM (inactive) | > 62.2 µM (inactive) | > 60.3 µM (inactive) | 32.7 µM (inactive) | > 35.6 µM (inactive) | > 22.5 µM (inactive) |
| CCCCCCCCCCc1c2nc(c(CCCCCCCCCC)c3ccc([nH]3)c(CCCCCCCCCC)c3nc(c(CCCCCCCCCC)c4ccc1[nH]4)C=C3)C=C2 | > 100 µM (inactive) | > 100 µM (inactive) | > 100 µM (inactive) | > 100 | 30 µM (inactive) | > 100 µM (inactive) | > 100 µM (inactive) | > 100 µM (inactive) | > 100 µM (inactive) | > 100 µM (inactive) | > 100 µM (inactive) | > 100 µM (inactive) | > 100 µM (inactive) | > 100 µM (inactive) | > 100 µM (inactive) | > 100 µM (inactive) | > 100 µM (inactive) | > 100 µM (inactive) | > 100 µM (inactive) | > 100 µM (inactive) |
| CCOC(=O)c1cc(C2(O)CCN(CC(C)CC)C2=O)c(-c2cc(C)no2)[nH]1 (stereo unspecified) | > 100 µM (inactive) | > 100 µM (inactive) | > 100 µM (inactive) | > 100 | > 100 µM (inactive) | > 100 µM (inactive) | > 100 µM (inactive) | > 100 µM (inactive) | > 100 µM (inactive) | > 100 µM (inactive) | > 100 µM (inactive) | > 100 µM (inactive) | > 100 µM (inactive) | > 100 µM (inactive) | > 100 µM (inactive) | > 100 µM (inactive) | > 100 µM (inactive) | > 100 µM (inactive) | > 100 µM (inactive) | > 100 µM (inactive) |
| CCCc1cc(=O)oc2c(C=O)c(O)cc(O)c12 | 30.1 µM (inactive) | 31.7 µM (inactive) | 16.7 µM (inactive) | 26.4 | 22.6 µM (inactive) | 30.9 µM (inactive) | 20 µM (inactive) | 23.3 µM (inactive) | 18.5 µM (inactive) | 20.3 µM (inactive) | 27.4 µM (inactive) | 25.1 µM (inactive) | 28 µM (inactive) | 26.6 µM (inactive) | 27.8 µM (inactive) | 24.9 µM (inactive) | 21.8 µM (inactive) | 22.5 µM (inactive) | 19.8 µM (inactive) | 22.8 µM (inactive) |
| N=C(N)/N=C(\N)Nc1ccc(C(=O)O)cc1 | > 100 µM (inactive) | > 100 µM (inactive) | > 100 µM (inactive) | > 100 | > 100 µM (inactive) | > 100 µM (inactive) | > 100 µM (inactive) | > 100 µM (inactive) | > 100 µM (inactive) | > 100 µM (inactive) | > 100 µM (inactive) | > 100 µM (inactive) | > 100 µM (inactive) | > 100 µM (inactive) | > 100 µM (inactive) | 43.1 µM (inactive) | > 100 µM (inactive) | > 100 µM (inactive) | > 100 µM (inactive) | > 100 µM (inactive) |
| CCOc1ccc(NC(=O)C(=O)Nn2c(N)nnc2N)cc1 | > 100 µM (inactive) | > 100 µM (inactive) | > 100 µM (inactive) | > 100 | > 100 µM (inactive) | > 100 µM (inactive) | > 100 µM (inactive) | > 100 µM (inactive) | > 100 µM (inactive) | > 100 µM (inactive) | > 100 µM (inactive) | > 100 µM (inactive) | > 100 µM (inactive) | > 100 µM (inactive) | > 100 µM (inactive) | > 100 µM (inactive) | > 100 µM (inactive) | > 100 µM (inactive) | > 100 µM (inactive) | > 100 µM (inactive) |
| Cc1nc2n(c1/C=C1/C(=O)Nc3ccccc31)CCS2 | 64.1 µM (inactive) | 51.9 µM (inactive) | 20.8 µM (inactive) | 34.2 | 39.5 µM (inactive) | 91 µM (inactive) | 72.4 µM (inactive) | 30.9 µM (inactive) | 56 µM (inactive) | 47 µM (inactive) | 33.8 µM (inactive) | 26.5 µM (inactive) | 47.1 µM (inactive) | 81.8 µM (inactive) | 68.2 µM (inactive) | 56.1 µM (inactive) | 47.4 µM (inactive) | 42.4 µM (inactive) | 24.2 µM (inactive) | 27.5 µM (inactive) |
| O=C(CCc1ccccc1)ON1C(=S)C(c2ccccc2)(c2ccccc2)N=C1Sc1ccccc1 | 26.5 µM (inactive) | 38.1 µM (inactive) | 46.6 µM (inactive) | 24.9 | 38.7 µM (inactive) | 6.53 µM (inactive) | 5.52 µM (inactive) | 4 µM (inactive) | 48.1 µM (inactive) | 34.4 µM (inactive) | 33.7 µM (inactive) | 34.3 µM (inactive) | 22 µM (inactive) | 22.7 µM (inactive) | 45.1 µM (inactive) | 68.5 µM (inactive) |  |  | 55.1 µM (inactive) | 60.3 µM (inactive) |
| CCCCCCCCCCCCCCCC(=O)OCC1OC(n2ccc(N)nc2=O)C(O)C1O (stereo unspecified) | 4.29 µM (inactive) | 0.601 µM (active) | 8.47 µM (inactive) | > 42.2 | > 100 µM (inactive) | > 100 µM (inactive) | 4.7 µM (inactive) | 0.0274 µM (active) | 5.28 µM (inactive) | 1.25 µM (inactive) | > 48.3 µM (inactive) | > 100 µM (inactive) | > 87.9 µM (inactive) | 12.1 µM (inactive) | 15.5 µM (inactive) | 9.95 µM (inactive) |  | 21.8 µM (inactive) | 11.4 µM (inactive) | 1.67 µM (inactive) |
